Measurements as given in patent US5767268A, “Sulfuric acid esters of amino sugars” (Hoffmann-La Roche Inc., priority 1995, dated 1998).
Counter-ions that a name gives are not always drawn. Like-named read-outs stand apart in the source and are kept apart here.

What was measured:
[1] = target: T1, Factor Xa (Bos taurus, UniProt P00743); assay: Blood coagulation inhibition: inhibition of Factor Xa in the Chromogen Substrate Test; format: biochemical
T1 sequence (P00743 41-180 limits assumed): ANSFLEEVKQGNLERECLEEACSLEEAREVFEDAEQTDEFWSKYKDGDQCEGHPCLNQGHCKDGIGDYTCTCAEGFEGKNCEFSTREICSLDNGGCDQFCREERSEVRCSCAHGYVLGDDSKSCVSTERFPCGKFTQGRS
Protocol: (§1) Inhibition of thrombin or Factor Xa in the Chromogen Substrate Test (Teien et al., Thrombosis Research 10, 399-410 (1977)): The determination was effected in a Cobas-Bio centrifugal automatic spectrophotometer. The buffer solution used consisted of 50 mM Tris buffer, 180 mM NaCl, 7.5 mM EDTA Na2, 1% PEG 6000 and 0.02% Tween 80, pH 8.4. The test solution consisted of 50 μl of buffer, 30 μl of antithombin III (1U/ml, Kabi Diagnostica) and 20 μl of plasma which contained various concentrations of test compounds. 30 μl of sample solution and 20 μl of water with 180 μl of thrombin (1U/ml, Thrombin Reagent Roche Basle) were added to the test cuvette in the automatic analyzer. After incubation at 37° C. for 240 seconds, 60 μl of S-2238 (H-D-Phe-Pip-Arg-NH.pNA, Kabi Diagnostica, Mondal, Sweden, 0.75 mM in water) and 20 μl of water were added. The liberation of pNA (p-nitro-aniline) was followed during 60 seconds at 405 nm in 10 second intervals in comparison to water as the blank.
The inhibition of Factor Xa was measured in the same manner using a solution of Factor Xa (2.8 nkat/ml and 2 mM S-2222 (Bz-CO-Ile-Glu-Arg-NH.pNA, Kabi Diagnostica) in water in place of thrombin and, respectively, S-2238.

[2] = system: rat smooth muscle cells; assay: Antiproliferative activity (ri, relative to heparin) in rat smooth muscle cells; format: cell-based; design: key: growth inhibition relative to heparin at 100 μg/ml, same experiment; conditions: 100 μg/ml, 48 h, relative to heparin at 100 μg/ml in the same experiment
Protocol: Antiproliferative Activity
The antiproliferative activity of a substance is expressed as the ri value which is a comparative value to the corresponding activity of heparin and which was determined in cell cultures as follows: rat smooth muscle cells were applied to cell culture plates in a density of 8×10^3 cells/well (medium: DMEM with 10% FCS. Cultivation at 37° C. and 5% CO2). After 4 hours, the number of adhered cells was determined and the substances to be tested (100 μg/ml, dissolved in H2 O) were added. […] Subsequently, the cells were incubated for 48 h. and thereafter the cell count was determined once more.
The inhibition i of the cell growth, that is, the reduction in the growth rate of the cells in percent compared to the control, was calculated from these values. [formula] the growth rate μbeing calculated as [formula] in which Z is the number of cells and d is the time in days.
Finally, ri --the relative inhibitory activity--which expresses the activity of a substance (at 100 μg/ml) in comparison to the activity of heparin in the same concentration in the same experiment, was calculated: [formula] Blood Coagulation Inhibition

[3] = target: T2, thrombin (Homo sapiens, UniProt P00734); format: biochemical
T2 construct: purchased Roche Basle (Thrombin Reagent)
Protocol: as §1

[4] = with antithrombin III and plasma, S-2222 substrate; read-out: Anticoagulative Activity IC50 Factor Xa
[5] = with antithrombin III and plasma, S-2238 substrate, 37° C., pH 8.4; read-out: Anticoagulative Activity IC50 Thrombin
[6] = read-out: Anticoagulative Activity IC50 Factor Xa; with antithrombin III and plasma, S-2222 substrate
[7] = read-out: Anticoagulative Activity IC50 Thrombin; with antithrombin III and plasma, S-2238 substrate, 37° C., pH 8.4

How did the IC50 [1, 4] turn out when `O=C(CO[C@@H]1[C@@H](NC(=O)c2ccc(-c3ccc(C(=O)N[C@H]4[C@@H](OCc5ccccc5)O[C@@H]5CO[C@@H](c6ccccc6)O[C@H]5[C@@H]4OCC(=O)N[C@H]4[C@@H](OCc5ccccc5)O[C@H](COS(=O)(=O)O)[C@@H](OS(=O)(=O)O)[C@@H]4OS(=O)(=O)O)cc3)cc2)[C@@H](OCc2ccccc2)O[C@@H]2CO[C@@H](c3ccccc3)O[C@@H]12)N[C@H]1[C@@H](OCc2ccccc2)O[C@H](COS(=O)(=O)O)[C@@H](OS(=O)(=O)O)[C@@H]1OS(=O)(=O)O` [Example 11, (Biphenyl-4,4'-dicarboxylic acid) bis-[[benzyl 3-O-[(benzyl 2-desoxy-2,3,4-tri-O-sulfo-a-D-glucopyranoside)-2-yl-carbamoylmethyl]-4,6-(R)-O-benzylidene-2-desoxy-a-D-glucopyranosid-2-yl]-amide] hexasodium salt] was run?
Its IC50 is > 495 µM.

What about the “Antiproliferative Activity ri (relative inhibitory activity versus heparin)” value [2] of the same compound?
Its value is 1.7.

And the IC50 [3, 5]?
The IC50 was > 495 µM.

How did the IC50 [1, 4] turn out when `O=C(N[C@H]1[C@@H](OCc2ccccc2)O[C@H](CNC(=O)[C@H](OS(=O)(=O)O)[C@@H](OS(=O)(=O)O)[C@H](OS(=O)(=O)O)[C@@H](COS(=O)(=O)O)OS(=O)(=O)O)[C@@H](OS(=O)(=O)O)[C@@H]1OS(=O)(=O)O)c1ccc(/C=C\c2ccc(C(=O)N[C@H]3[C@@H](OCc4ccccc4)O[C@H](CNC(=O)[C@H](OS(=O)(=O)O)[C@@H](OS(=O)(=O)O)[C@H](OS(=O)(=O)O)[C@@H](COS(=O)(=O)O)OS(=O)(=O)O)[C@@H](OS(=O)(=O)O)[C@@H]3OS(=O)(=O)O)cc2)cc1` [Example 23, (Z)-stilbene-4,4'-dicarboxylic acid bis-[[benzyl 2,6-didesoxy-6-(2,3,4,5,6-penta-O-sulfo-D-gluconoylamino)-3,4-di-O-sulfo-α-D-glucopyranosid-2-yl]-amide] tetradecasodium salt] was run?
Its IC50 is > 445 µM.

And the “Antiproliferative Activity ri (relative inhibitory activity versus heparin)” value [2]?
Its value is 1.8.

What about the IC50 [3, 5] of the same compound?
The IC50 was > 445 µM.

`O=C(NC[C@H]1O[C@H](OCc2ccccc2)[C@H](NC(=O)c2ccc(NC[C@H](OS(=O)(=O)O)[C@@H](OS(=O)(=O)O)[C@H](OS(=O)(=O)O)[C@@H](COS(=O)(=O)O)OS(=O)(=O)O)c([N+](=O)[O-])c2)[C@@H](OS(=O)(=O)O)[C@@H]1OS(=O)(=O)O)c1cc(C(=O)NC[C@H]2O[C@H](OCc3ccccc3)[C@H](NC(=O)c3ccc(NC[C@H](OS(=O)(=O)O)[C@@H](OS(=O)(=O)O)[C@H](OS(=O)(=O)O)[C@@H](COS(=O)(=O)O)OS(=O)(=O)O)c([N+](=O)[O-])c3)[C@@H](OS(=O)(=O)O)[C@@H]2OS(=O)(=O)O)cc(C(=O)NC[C@H]2O[C@H](OCc3ccccc3)[C@H](NC(=O)c3ccc(NC[C@H](OS(=O)(=O)O)[C@@H](OS(=O)(=O)O)[C@H](OS(=O)(=O)O)[C@@H](COS(=O)(=O)O)OS(=O)(=O)O)c([N+](=O)[O-])c3)[C@@H](OS(=O)(=O)O)[C@@H]2OS(=O)(=O)O)c1` [Example 30, Benzene-1,3,5-tricarboxylic acid tris-[[benzyl 2,6-didesoxy-2-[4-(2,3,4,5,6-penta-O-sulfo-D-glucit-1-ylamino)-3-nitro-benzoylamino]-3,4-di-O-sulfo-a-D-glucopyranosid-6-yl]-amide] henicosasodium salt] was tested. Which IC50 [1, 6] did it give?
Its IC50 is > 276 µM.

What about the “Antiproliferative Activity ri (relative inhibitory activity versus heparin)” value [2] of the same compound?
Its value is 1.6.

And the IC50 [3, 7]?
Its IC50 is > 276 µM.

Which results are given for `O=C(NC[C@H]1O[C@H](OCc2ccccc2)[C@H](NC(=O)c2ccc(NC[C@H](OS(=O)(=O)O)[C@@H](OS(=O)(=O)O)[C@H](OS(=O)(=O)O)[C@@H](COS(=O)(=O)O)OS(=O)(=O)O)c([N+](=O)[O-])c2)[C@@H](OS(=O)(=O)O)[C@@H]1OS(=O)(=O)O)c1ccc(/C=C/c2ccc(C(=O)NC[C@H]3O[C@H](OCc4ccccc4)[C@H](NC(=O)c4ccc(NC[C@H](OS(=O)(=O)O)[C@@H](OS(=O)(=O)O)[C@H](OS(=O)(=O)O)[C@@H](COS(=O)(=O)O)OS(=O)(=O)O)c([N+](=O)[O-])c4)[C@@H](OS(=O)(=O)O)[C@@H]3OS(=O)(=O)O)cc2Cl)cc1` [Example 32, (E)-2-Chloro-stilbene-4,4'-dicarboxylic acid bis-[[benzyl 2,6-didesoxy-2-[4-(2,3,4,5,6-penta-O-sulfo-D-glucit-1-ylamino)-3-nitro-benzoylamino]-3,4-di-O-sulfo-a-D-glucopyranosid-6-yl]-amide] tetradecasodium salt]?
IC50 [1, 6]: > 387 µM; Antiproliferative Activity ri (relative inhibitory activity versus heparin) [2]: 1.4; IC50 [3, 7]: > 387 µM

Which results are given for `O=C(NC[C@H]1O[C@H](OCc2ccccc2)[C@H](NC(=O)c2ccc(NC[C@H](OS(=O)(=O)O)[C@@H](OS(=O)(=O)O)[C@H](OS(=O)(=O)O)[C@@H](COS(=O)(=O)O)OS(=O)(=O)O)c([N+](=O)[O-])c2)[C@@H](OS(=O)(=O)O)[C@@H]1OS(=O)(=O)O)c1cccc(C(=O)NC[C@H]2O[C@H](OCc3ccccc3)[C@H](NC(=O)c3ccc(NC[C@H](OS(=O)(=O)O)[C@@H](OS(=O)(=O)O)[C@H](OS(=O)(=O)O)[C@@H](COS(=O)(=O)O)OS(=O)(=O)O)c([N+](=O)[O-])c3)[C@@H](OS(=O)(=O)O)[C@@H]2OS(=O)(=O)O)c1` [Example 33, Isophthalic acid bis-[[benzyl 2,6-didesoxy-2-[4-(2,3,4,5,6-penta-O-sulfo-D-glucit-1-ylamino)-3-nitro-benzoylamino]-3,4-di-O-sulfo-a-D-glucopyranosid-6-yl]-amide] tetradecasodium salt]?
IC50 [1, 6]: > 409 µM; Antiproliferative Activity ri (relative inhibitory activity versus heparin) [2]: 1.5; IC50 [3, 7]: > 409 µM

What does the source list for `O=C(N[C@H]1[C@@H](OCc2ccccc2)O[C@H](CN2C(=O)c3ccc4c5c(ccc(c35)C2=O)C(=O)N(C[C@H]2O[C@H](OCc3ccccc3)[C@H](NC(=O)c3ccc(NC[C@H](OS(=O)(=O)O)[C@@H](OS(=O)(=O)O)[C@H](OS(=O)(=O)O)[C@@H](COS(=O)(=O)O)OS(=O)(=O)O)c([N+](=O)[O-])c3)[C@@H](OS(=O)(=O)O)[C@@H]2OS(=O)(=O)O)C4=O)[C@@H](OS(=O)(=O)O)[C@@H]1OS(=O)(=O)O)c1ccc(NC[C@H](OS(=O)(=O)O)[C@@H](OS(=O)(=O)O)[C@H](OS(=O)(=O)O)[C@@H](COS(=O)(=O)O)OS(=O)(=O)O)c([N+](=O)[O-])c1` [Example 34, 2,7-Bis-[benzyl 2,6-didesoxy-2-[3-nitro-4-(2,3,4,5,6-penta-O-sulfo-D-glucit-1-ylamino)-benzoylamino]-3,4-di-O-sulfo-a-D-1 5 glucopyranosid-6-yl]-1,2,3,6,7,8-hexahydro-benzo[lmn][3,8] phenanthroline-1,3,6,8-tetraone tetradecasodium salt]?
IC50 [1, 6]: > 393 µM; Antiproliferative Activity ri (relative inhibitory activity versus heparin) [2]: 3.9; IC50 [3, 7]: > 393 µM

How did the IC50 [1, 6] turn out when `CN(C[C@H](OS(=O)(=O)O)[C@@H](OS(=O)(=O)O)[C@H](OS(=O)(=O)O)[C@@H](COS(=O)(=O)O)OS(=O)(=O)O)c1ccc(C(=O)N[C@H]2[C@@H](OCc3ccccc3)O[C@H](CNC(=O)c3cccc(C(=O)NC[C@H]4O[C@H](OCc5ccccc5)[C@H](NC(=O)c5ccc(N(C)C[C@H](OS(=O)(=O)O)[C@@H](OS(=O)(=O)O)[C@H](OS(=O)(=O)O)[C@@H](COS(=O)(=O)O)OS(=O)(=O)O)c([N+](=O)[O-])c5)[C@@H](OS(=O)(=O)O)[C@@H]4OS(=O)(=O)O)c3)[C@@H](OS(=O)(=O)O)[C@@H]2OS(=O)(=O)O)cc1[N+](=O)[O-]` [Example 35, Isophthalic acid bis-[[benzyl 2,6-didesoxy-2-[4-[methyl (2,3,4,5,6-penta-O-sulfo-D-glucit-1-yl)-amino]-3-nitro-benzoylamino]-3,4-di-O-sulfo-a-D-glucopyranosid-6-yl]-amide] tetradecasodium salt] was run?
Its IC50 is > 404 µM.

What about the “Antiproliferative Activity ri (relative inhibitory activity versus heparin)” value [2] of the same compound?
Its value is 2.5.

What about the IC50 [3, 7] of the same compound?
Its IC50 is > 404 µM.

`O=C(NC[C@H]1O[C@H](OCc2ccccc2)[C@H](NC(=O)c2ccc(N(CCOS(=O)(=O)O)C[C@H](OS(=O)(=O)O)[C@@H](OS(=O)(=O)O)[C@H](OS(=O)(=O)O)[C@@H](COS(=O)(=O)O)OS(=O)(=O)O)c([N+](=O)[O-])c2)[C@@H](OS(=O)(=O)O)[C@@H]1OS(=O)(=O)O)c1cccc(C(=O)NC[C@H]2O[C@H](OCc3ccccc3)[C@H](NC(=O)c3ccc(N(CCOS(=O)(=O)O)C[C@H](OS(=O)(=O)O)[C@@H](OS(=O)(=O)O)[C@H](OS(=O)(=O)O)[C@@H](COS(=O)(=O)O)OS(=O)(=O)O)c([N+](=O)[O-])c3)[C@@H](OS(=O)(=O)O)[C@@H]2OS(=O)(=O)O)c1` [Example 36, Isophthalic acid bis-[[benzyl 2,6-didesoxy-2-[4-[(2-hydroxysulfonyloxy-ethyl)-2,3,4,5,6-penta-O-sulfo-D-glucit-1-yl)-amino]-3-nitro-benzoylamino]-3,4-di-O-sulfo-a-D-glucopyranosid-6-yl]-amide] hexadecasodium salt] was tested. Which IC50 [1, 6] did it give?
Its IC50 is > 371 µM.

And the “Antiproliferative Activity ri (relative inhibitory activity versus heparin)” value [2]?
Its value is 2.1.

What about the IC50 [3, 7] of the same compound?
The IC50 was > 371 µM.
